Measured values published in patent US20150190369A1, “QUERCETIN-3-GLUCOSIDE AND USES THEREOF” (priority 2012, published 2015).

Experiments:
ABCG1 mRNA = test: qRT-PCR for ABCG1 mRNA in MIN6 β-cells; format: cell-based, mouse; details: MIN6, 24 h
Description: Mouse insulinoma MIN6 cells were cultured in a 5% CO2-95% air atmosphere at 37° C. in DMEM medium containing 10% heat-inactivated fetal bovine serum, 1 mM Na-pyruvate, 2 mM L-glutamine, 25 mM D-glucose, and 28 μM β-mercaptoethanol. Q3G at a specific final concentration was supplemented to the culture medium and incubation was conducted for a selected length of time. Media were collected, spun at 600 g to sediment suspended cells, supplemented with 0.5 volumes of 3×RIPA-PIC (1×: 50 mM Tris-HCl, pH 8, 150 mM NaCl, 1% NP-40, 0.5% Na-deoxycholate and 0.1% SDS and PIC). Cells were lysed in 1×RIPA-PIC for immuno-blotting, or in RNA extraction buffer for qRT-PCR.
For the mouse studies, the levels of specific mRNAs were quantified in a PCR-based fluorogenic assay using the Taqman technology (Holland et al., 1991). Briefly, total RNA was extracted using the RNeasy extraction kit and reverse-transcribed into cDNA using random hexameric primers and the Superscript II RNase H-Reverse Transcriptase. […] Standard curves were established using varying amounts of pre-quantified amplicons of each transcript. […]
MIN6 β-cells were incubated for 24 h in the presence of different concentrations of Q3G. Total RNA was extracted and analyzed by qRT-PCR for the levels of mRNA for PCSK9, LDLR, ABCA1 and ABCG1.

PCSK9 = test: Semi-quantitative immunoblotting for cellular PCSK9 in Huh7 cells; format: cell-based, human
Description: (§1) At passage, Huh7 cells were routinely seeded at sub-confluence (˜10^6 cells/10-cm dish) in Dulbecco's modified Eagle's medium (DMEM) containing 10% fetal bovine serum (FBS) or LPDS (for experiments) and 50 μg/ml gentamycin. They were incubated overnight at 37° C., in a humidified 5% CO2-95% air atmosphere. Cells were treated or not with Q3G at defined concentrations and for defined lengths of time. Media were collected and centrifuged at 200 g for 5 min to sediment suspended cells; supernatants were collected and supplemented with 0.33 volumes of a 3×-concentrated PIC. Cell monolayers were rinsed with ice-cold phosphate-buffered saline (PBS); they were overlaid with […] the RIPA lysis buffer (50 mM Tris-HCl, pH 8, 150 mM NaCl, 1% NP-40, 0.5% Na-deoxycholate and 0.1% SDS) supplemented with 1× PIC. After 20 min in an ice bath, the lysates were centrifuged at 14,000 g and 4° C. for 20 min, and supernatants were collected. Conditioned media and lysates were stored at −20° C. until analysis.
Cell lysates were fractionated by SDS-PAGE and electrophoretically transferred onto a polyvinylidene fluoride membrane. The membrane was incubated with a goat antihuman LDLR, rabbit anti-PCSK9, or rabbit anti-SREBP-2 polyclonal antibody at 1:1000, 1:1500, and 1:200 dilutions, respectively, and then with a HRP-conjugated heterospecific secondary antibody against the primary Igs at a 1:2000 dilution. It was probed for HRP reaction using the Western Lightning Chemiluminescence Reagent Plus a chemiluminescence-based revelation kit. The signal was captured on X-ray film and immunoreactive bands analyzed by densitometry on a Syngene's ChemiGenius^2XE Bio Imaging System (Cambridge, Mass.) within the dynamic range of the instrument. The membrane was stripped and reprobed with the anti-β-actin monoclonal primary antibody at 1:20,000 dilution and HRP-conjugated rabbit anti-mouse IgG secondary antibody at a 1:5000 dilution. The densitometric values of β-actin bands were using for normalization of experimental samples. […]

PCSK9 mRNA = test: Quantitative RT-PCR for PCSK9 mRNA in Huh7 cells; format: cell-based, human; details: Huh7, 24 h, highest Q3G concentration tested (0 to 10 μM)
Description: as §1
Total RNA was extracted using the Qiagen RNeasy extraction kit. It was reverse transcribed into cDNA using random hexameric primers and the Superscript II RNase H-Reverse Transcriptase. […]
(§2) Standard curves were established using varying amounts of purified and quantified cDNA amplicons of each mRNA. […]

SREBP-2 mRNA = test: Quantitative RT-PCR for proSREBP-2 mRNA in Huh7 cells; format: cell-based, human; details: Huh7, 24 h, 5 μM Q3G
Description: FIGS. 9A and 9B are graphs illustrating the proSREBPs-2 mRNA and SREBP-2-related protein levels for cells exposed to Q3G. Cells were incubated for 24 h in medium 5 μM Q3G. FIG. 9A illustrates the results for quantitative RT-PCR for proSREBPs-2 mRNA levels. Values are the means of triplicate experiments±SEM. FIG. 9B illustrates the results for semi-quantitative immunoblotting for cellular SREBP-2-related protein. Mat/Prec values, the averages of two experiments, represent density ratios of the 65-kDa SREBP over the 158-kDa proSREBPs after normalization for β-actin.
At passage, Huh7 cells were routinely seeded at sub-confluence (˜10^6 cells/10-cm dish) in Dulbecco's modified Eagle's medium (DMEM) containing 10% fetal bovine serum (FBS) or LPDS (for experiments) and 50 μg/ml gentamycin. They were incubated overnight at 37° C., in a humidified 5% CO2-95% air atmosphere. Cells were treated or not with Q3G at defined concentrations and for defined lengths of time. Media were collected and centrifuged at 200 g for 5 min to sediment suspended cells; supernatants were collected and supplemented with 0.33 volumes of a 3×-concentrated PIC. […]
as §2

SMILES: O=c1c(O[C@@H]2O[C@H](CO)[C@@H](O)[C@H](O)[C@H]2O)c(-c2ccc(O)c(O)c2)oc2cc(O)cc(O)c12 [Q3G, quercetin-3-O-β-D-glucoside]
- effect on ABCG1 mRNA levels (ABCG1 mRNA; Q3G 8 mM and above): reducing
- increase of ABCG1 mRNA levels (ABCG1 mRNA; Q3G up to 4 mM): about 50%
- lag before PCSK9 accumulation in the cells (PCSK9; Huh7, 2 μM Q3G, time course): 3 h
- amount of cellular PCSK9 (PCSK9; Huh7, 24 h, co-treatment 5 μM Q3G with simvastatin 0.2 and 1 μM): further increased
- increase of PCSK9 protein in the cells (PCSK9; Huh7, 24 h, highest Q3G concentration tested (0 to 10 μM)): 1.9 ×
- decrease of PCSK9 mRNA levels (PCSK9 mRNA): one-third
- effect on level of SREBP-2 mRNA (SREBP-2 mRNA): no effect
